Our source for the Activity values is ChEMBL document CHEMBL1158100, “Sesquiterpenes from Thapsia nitida var. meridionalis and Thapsia nitida var. nitida” (J Nat Prod, 2006).

Activity calls are given as the source filed them. The rule behind the calls is not given here.

The first assay is described as follows: Inhibition of sarcoplasmic/endoplasmic reticulum calcium ATPase at upto 100 uM.
For the molecule `C=C1C(=O)O[C@@H]2[C@H]1CC[C@]1(C)[C@@H]3O[C@@H]3[C@H](OC(=O)CC(C)C)C(=C)[C@@H]21`, the outcome was inactive.
As to `C=C1CC[C@@H]2[C@@H](OC(=O)[C@@]2(C)OC(=O)/C(C)=C\C)[C@H]2[C@@H]1C[C@@H](OC(C)=O)[C@@]2(C)O`, the outcome was inactive.
On the same count and under the same terms, the value for `C=C1C(=O)O[C@@H]2[C@H]1CC[C@]1(C)[C@@H]3O[C@@H]3[C@H](OC(=O)C=C(C)C)C(=C)[C@@H]21` was “inactive”; that for `C=C1CC[C@@H]2[C@@H](OC(=O)[C@@]2(C)OC(=O)/C(C)=C\C)[C@@H]2C(C)=CC[C@H]12` was “inactive”; that for `C/C=C(/C)C(=O)O[C@]1(C)C(=O)O[C@H]2[C@@H]3C(C)=CC[C@@H]3[C@@](C)(O)CC[C@H]21` was “inactive”.
Same read-out and setting: the result for `C=C1CC[C@@H]2[C@@H](OC(=O)[C@@]2(C)OC(=O)/C(C)=C/C)[C@H]2[C@@H]1C[C@@H](OC(C)=O)[C@@]2(C)O` reads “inactive”.

A short description of the next assay: Inhibition of sarcoplasmic/endoplasmic reticulum calcium ATPase at upto 10 uM.
As for `C=C1C(=O)O[C@@H]2[C@H]1CC[C@]1(C)[C@@H]3O[C@@H]3[C@H](OC(=O)C=C(C)C)C(=C)[C@@H]21`, the result was inactive.
